The values below come from patent US11160887B2, “Compositions for use in diagnosing and treating melanoma, including metastatic melanoma and methods related to same” (UNM RAINFOREST INNOVATIONS, priority 2008, dated 2021).

In data set [1] the test system is B16/F10 pulmonary melanoma metastases. The data set is classed as in vivo, mouse. The method, then: Metastatic Melanoma Imaging: A pulmonary metastatic melanoma-bearing mouse was used for [^18F]FDG PET imaging 16 days after the cell injection and used for ^111In-DOTA-GlyGlu-CycMSH SPECT/CT imaging on next day (a time interval of 26 h) to compare the difference in detection efficiency between [^18F]FDG and ^111In-DOTA-GlyGlu-CycMSH. The mouse was injected with 35.15 MBq of commercial [^18F]FDG (Biotech, N. Mex.) via the tail vein. At 1 h post-injection, the mouse was anesthetized with 1.5% isoflurane and placed in the prone position near the center of the field of view of small animal PET (LabPET™) (Gamma Medica-Ideas, Sherbrooke, Quebec). A 30-min static scan was acquired, and the image was reconstructed by maximum likelihood estimation method (MLEM). The mouse was returned to the cage for recovery after the ^18F-FDG PET imaging study was completed. The same mouse was injected with 24.05 MBq of ^111In-DOTA-GlyGlu-CycMSH via the tail vein 24 h after the ^18F-FDG PET imaging study. The mouse was anesthetized with 1.5% isoflurane for small animal SPECT/CT (Nano-SPECT/CT®, Bioscan) imaging 2 h post-injection. The 6-min CT imaging was immediately followed by the focused SPECT imaging of lung. The SPECT scans of 24 projections were acquired and total acquisition time was 45 min. After the focused lung imaging, the mouse was sacrificed with CO2 inhalation for whole-body SPECT/CT imaging. The 9-min CT imaging was immediately followed by the SPECT imaging of whole-body. Reconstructed data from SPECT and CT were visualized and co-registered using InVivoScope (Bioscan, Washington D.C.). Necropsy analysis of the mouse was performed to confirm the pulmonary metastatic melanoma lesions after the SPECT/CT imaging studies were completed. To monitor the development of pulmonary melanoma metstases with ^111In-DOTA-GlyGlu-CycMSH, a pulmonary metastatic melanoma-bearing mouse was injected with 10.36 MBq of ^111In-DOTA-GlyGlu-CycMSH through the tail vein for small animal SPECT/CT imaging 20 days after the cell injection. […]

In data set [2] the test system is melanoma metastases smaller than 5 mm. As to conditions: literature (5); cited from earlier work.

In the case of “2-[^18F]fluoro-2-deoxy-D-glucose [[^18F]FDG]”, in data set [1] (SPECT/CT 2 h post-injection (111In peptide) or PET 1 h post-injection ([18F]FDG), same mouse, 16-17 days post the cell injection), the “detection of pulmonary metastatic melanoma lesions by imaging” value is on record as “failed in identifying the pulmonary melanoma metastases”. Besides, the “accumulation of activity in normal organs in whole-body image” value in data set [1] (mouse, in vivo) is “much higher normal organ accumulation”. Also, the “melanoma metastases smaller than 5 mm detected by PET imaging” value in data set [2] is recorded as 23%.
